Assay results from US12545685B2 (Daiichi Sankyo Company, Limited, priority 2011, dated 2026).
pIC50: −log10 of the molar value.

Molecular target: T1, Mdm2/p53 binding (GST-Mdm2 / His-p53) (Homo sapiens, UniProt Q00987, L33E)
T1 construct: Mdm2 partial protein having Mdm2 amino acids at positions 25 to 108
Experiment: Mdm2/p53 binding assay (HTRF, His-p53 and GST-Mdm2)
Conditions: His-p53 (aa 1-132) and GST-Mdm2 (aa 25-108, L33E) 6.25 nM each; 25°C, 1 hour; values given as ranges
Summary of the method: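 His-p53 (aa 1–132) and GST-Mdm2 (aa 25–108, L33E) were prepared at 6.25 nM each in the protein dilution (20 mM HEPES pH 7.4, 150 mM NaCl, 0.1% BSA). Compound in 10% DMSO buffer and XL665 anti-His/Eu anti-GST antibodies (KF buffer) were added, with 1 h at 25 °C. The 665/620 nm TR-FRET ratio gave T/C and a sigmoid-fitted IC50.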

T1 sequence (Q00987 25-108 L33E): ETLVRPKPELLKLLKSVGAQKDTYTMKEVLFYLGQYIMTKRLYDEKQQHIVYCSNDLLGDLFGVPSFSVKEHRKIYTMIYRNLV

In the case of `O=C(N[C@H]1CC[C@H](c2nnco2)CC1)[C@@H]1NC2(CC(CF)(CF)C2)[C@@]2(C(=O)Nc3cc(Cl)ccc32)[C@H]1c1ccnc(Cl)c1F` [Example 95, (3′R, 4′S,5′R)-6″-chloro-4′-(2-chloro-3-fluoropyridin-4-yl)-3,3-bis(fluoromethyl)-N-[trans-4-(1,3,4-oxadiazol-2-yl)cyclohexyl]-2″-oxo-1″,2′-dihydrodispiro[cyclobutane-1,2′-pyrrolidine-3′,3″-indole]-5′-carboxamide], the pIC50 was 7.00 to 7.30.

Molecule `CC1(C)CCC2(CC1)N[C@@H](C(=O)N[C@@H]1CC[C@@H](CS(C)(=O)=O)OC1)[C@H](c1ccnc(Cl)c1F)[C@]21C(=O)Nc2cc(Cl)ccc21` [Example 98, (3′R, 4′S,5′R)-6″-chloro-4′-(2-chloro-3-fluoropyridin-4-yl)-4,4-dimethyl-N-{(3R,6S)-6-[(methylsulfonyl)methyl]tetrahydro-2H-pyran-3-yl}-2″-oxo-1″,2″-dihydrodispiro[cyclohexane-1,2′-pyrrolidine-3′,3″-indole]-5′-carboxamide] has a pIC50 of 7.00 to 7.30.

Work on `CNC(=O)[C@@H]1CC[C@@H](NC(=O)[C@@H]2NC3(CCC(C)(C)CC3)[C@@]3(C(=O)Nc4nc(Cl)ccc43)[C@H]2c2ccnc(Cl)c2F)CO1` [Example 101, (3′R, 4′S,5′R)-6″-chloro-4′-(2-chloro-3-fluoropyridin-4-yl)-4,4-dimethyl-N-[(3R,6S)-6-(methylcarbamoyl)tetrahydro-2H-pyran-3-yl]-2″-oxo-1″,2″-dihydrodispiro[cyclohexane-1,2′-pyrrolidine-3′,3″-pyrrolo[2,3-b]pyridine]-5′-carboxamide] yielded a pIC50 of 7.30 to 9.00.

`CC1(C)CCC2(CC1)N[C@@H](C(=O)N[C@@H]1CC[C@@H](C(=O)NC3CC3)OC1)[C@H](c1ccnc(Cl)c1F)[C@]21C(=O)Nc2nc(Cl)ccc21` [Example 102, (3′R, 4′S,5′R)-6″-chloro-4′-(2-chloro-3-fluoropyridin-4-yl)-N-[(3R,6S)-6-(cyclopropylcarbamoyl)tetrahydro-2H-pyran-3-yl]-4,4-dimethyl-2″-oxo-1″,2″-dihydrodispiro[cyclohexane-1,2′-pyrrolidine-3′,3″-pyrrolo[2,3-b]pyridine]-5′-carboxamide] gave a pIC50 of 7.30 to 9.00.

With `CC1(C)CCC2(CC1)N[C@@H](C(=O)N[C@@H]1CC[C@@H](C(=O)NCCO)OC1)[C@H](c1ccnc(Cl)c1F)[C@]21C(=O)Nc2cc(Cl)ccc21` [Example 103, (3′R, 4′S,5′R)-6″-chloro-4′-(2-chloro-3-fluoropyridin-4-yl)-N-{(3R,6S)-6-[(2-hydroxyethyl)carbamoyl]tetrahydro-2H-pyran-3-yl}-4,4-dimethyl-2″-oxo-1″,2″-dihydrodispiro[cyclohexane-1,2′-pyrrolidine-3′,3″-indole]-5′-carboxamide] the pIC50 was 7.30 to 9.00.

`CN(C)C(=O)[C@@H]1CC[C@@H](NC(=O)[C@@H]2NC3(CCC(C)(C)CC3)[C@@]3(C(=O)Nc4nc(Cl)ccc43)[C@H]2c2ccnc(Cl)c2F)CO1` [Example 104, (3′R, 4′S,5′R)-6″-chloro-4′-(2-chloro-3-fluoropyridin-4-yl)-N-[(3R,6S)-6-(dimethylcarbamoyl)tetrahydro-2H-pyran-3-yl]-4,4-dimethyl-2″-oxo-1″,2″-dihydrodispiro[cyclohexane-1,2′-pyrrolidine-3′,3″-pyrrolo[2,3-b]pyridine]-5′-carboxamide] gave a pIC50 of 7.30 to 9.00.

`C[C@H]1O[C@H](CO)CC[C@H]1NC(=O)[C@@H]1NC2(CCC(C)(C)CC2)[C@@]2(C(=O)Nc3cc(Cl)ccc32)[C@H]1c1ccnc(Cl)c1F` [Example 105, (3′R, 4′S,5′R)-6″-chloro-4′-(2-chloro-3-fluoropyridin-4-yl)-N-[(2R,3R,6S)-6-(hydroxymethyl)-2-methyltetrahydro-2H-pyran-3-yl]-4,4-dimethyl-2″-oxo-1″,2″-dihydrodispiro[cyclohexane-1,2′-pyrrolidine-3′,3″-indole]-5′-carboxamide] was tested, and the pIC50 was 7.30 to 9.00.

With `CC1(C)CCC2(CC1)N[C@@H](C(=O)N[C@@H]1CC[C@@H](C(=O)N3CCC3)OC1)[C@H](c1ccnc(Cl)c1F)[C@]21C(=O)Nc2cc(Cl)ccc21` [Example 106, (3′R, 4+S,5′R)—N-[(3R,6S)-6-(azetidin-1-ylcarbonyl)tetrahydro-2H-pyran-3-yl]-6″-chloro-4′-(2-chloro-3-fluoropyridin-4-yl)-4,4-dimethyl-2″-oxo-1″,2″-dihydrodispiro[cyclohexane-1,2′-pyrrolidine-3′,3″-indole]-5H-carboxamide] the pIC50 was 7.30 to 9.00.

Work on `CCNC(=O)[C@H]1C[C@H](NC(=O)[C@@H]2NC3(CCC(C)(C)CC3)[C@@]3(C(=O)Nc4cc(Cl)ccc43)[C@H]2c2ccnc(Cl)c2F)C1` [Example 118, (3′R,4′S,5′R)-6″-chloro-4′-(2-chloro-3-fluoropyridin-4-yl)-N-[trans-3-(ethylcarbamoyl)cyclobutyl]-4,4-dimethyl-2″-oxo-1″,2″-dihydrodispiro[cyclohexane-1,2′-pyrrolidine-3′,3″-indole]-5′-carboxamide] yielded a pIC50 of 7.30 to 9.00.

`CC1(C)CCC2(CC1)N[C@@H](C(=O)N[C@H]1C[C@H](CO)C1)[C@H](c1ccnc(Cl)c1F)[C@]21C(=O)Nc2cc(Cl)ccc21` [Example 119, (3′R,4′S,5′R)-6″-chloro-4′-(2-chloro-3-fluoropyridin-4-yl)-N-[trans-3-(hydroxymethyl)cyclobutyl]-4,4-dimethyl-2″-oxo-1″,2″-dihydrodispiro[cyclohexane-1,2′-pyrrolidine-3′,3″-indole]-5′-carboxamide] showed a pIC50 of 7.30 to 9.00.

`CC1(C)CCC2(CC1)N[C@@H](C(=O)N[C@H]1C[C@H](C(=O)NC3CCOCC3)C1)[C@H](c1ccnc(Cl)c1F)[C@]21C(=O)Nc2cc(Cl)ccc21` [Example 120, (3′R, 4′S,5′R)-6″-chloro-4′-(2-chloro-3-fluoropyridin-4-yl)-4,4-dimethyl-2″-oxo-N-[trans-3-(tetrahydro-2H-pyran-4-ylcarbamoyl)cyclobutyl]-1″,2″-dihydrodispiro[cyclohexane-1,2′-pyrrolidine-3′,3″-indole]-5′-carboxamide] was tested, and the pIC50 was 7.30 to 9.00.

Work on `NC(=O)[C@@H]1CC[C@@H](NC(=O)[C@@H]2NC3(CC(CF)(CF)C3)[C@@]3(C(=O)Nc4cc(Cl)ccc43)[C@H]2c2cccc(Cl)c2F)CO1` [Example 122, (3′R, 4′S,5′R)—N-[(3R, 6S)-6-carbamoyltetrahydro-2H-pyran-3-yl]-6″-chloro-4′-(3-chloro-2-fluorophenyl)-3,3-bis(fluoromethyl)-2″-oxo-1″,2″-dihydrodispiro[cyclobutane-1,2-pyrrolidine-3′,3″-indole]-5′-carboxamide] yielded a pIC50 of 7.30 to 9.00.

With `O=C(N[C@H]1CC[C@H](c2nnco2)CC1)[C@@H]1NC2(CC(CF)(CF)C2)[C@@]2(C(=O)Nc3cc(Cl)ccc32)[C@H]1c1cccc(Cl)c1F` [Example 123, (3′R, 4″S,5′R)-6′-chloro-4′-(3-chloro-2-fluorophenyl)-3,3-bis(fluoromethyl)-N-[trans-4-(1,3,4-oxadiazol-2-yl)cyclohexyl]-2″-oxo-1″,2″-dihydrodispiro[cyclobutane-1,2′-pyrrolidine-3′,3″-indole]-5′-carboxamide] the pIC50 was 7.00 to 7.30.

`CN(C)C(=O)[C@@H]1CC[C@@H](NC(=O)[C@@H]2NC3(CC(CF)(CF)C3)[C@@]3(C(=O)Nc4cc(Cl)ccc43)[C@H]2c2cccc(Cl)c2F)CO1` [Example 124, (3′R, 4′S,5′R)-6″-chloro-4′-(3-chloro-2-fluorophenyl)-N-[(3R,6S)-6-(dimethylcarbamoyl)tetrahydro-2H-pyran-3-yl]-3,3-bis(fluoromethyl)-2″-oxo-1″,2″-dihydrodispiro[cyclobutane-1,2′-pyrrolidine-3′,3″-indole]-5′-carboxamide] showed a pIC50 of 7.30 to 9.00.

Molecule `CCN(C)C(=O)[C@@H]1CC[C@@H](NC(=O)[C@@H]2NC3(CCC(C)(C)CC3)[C@@]3(C(=O)Nc4cc(Cl)ccc43)[C@H]2c2ccnc(Cl)c2F)CO1` [Example 125, (3′R, 4′S,5′R)-6″-chloro-4′-(2-chloro-3-fluoropyridin-4-yl)-N-{(3R,6S)-6-[ethyl(methyl)carbamoyl]tetrahydro-2H-pyran-3-yl}-4,4-dimethyl-2″-oxo-1″,2″-dihydrodispiro[cyclohexane-1,2′-pyrrolidine-3′,3″-indole]-5′-carboxamide] has a pIC50 of 7.30 to 9.00.

With `CC1(C)CCC2(CC1)N[C@@H](C(=O)N[C@@H]1CC[C@@H](C(=O)NCCF)OC1)[C@H](c1ccnc(Cl)c1F)[C@]21C(=O)Nc2cc(Cl)ccc21` [Example 126, (3′R, 4′S,5′R)-6″-chloro-4′-(2-chloro-3-fluoropyridin-4-yl)-N-{(3R,6S)-6-[{2-fluoroethyl}carbamoyl]tetrahydro-2H-pyran-3-yl}-4,4-dimethyl-2″-oxo-1″,2″-dihydrodispiro[cyclohexane-1,2′-pyrrolidine-3′,3″-indole]-5′-carboxamide] the pIC50 was 7.30 to 9.00.

With `COCCN(C)C(=O)[C@@H]1CC[C@@H](NC(=O)[C@@H]2NC3(CCC(C)(C)CC3)[C@@]3(C(=O)Nc4cc(Cl)ccc43)[C@H]2c2ccnc(Cl)c2F)CO1` [Example 127, (3′R, 4′S,5′R)-6″-chloro-4′-(2-chloro-3-fluoropyridin-4-yl)-N-{(3R,6S)-6-[(2-methoxyethyl)(methyl)carbamoyl]tetrahydro-2H-pyran-3-yl}-4,4-dimethyl-2″-oxo-1″,2″=dihydrodispiro[cyclohexane-1,2′-pyrrolidine-3′,3″-indole]-5′-carboxamide] the pIC50 was 7.30 to 9.00.

`COCCNC(=O)[C@@H]1CC[C@@H](NC(=O)[C@@H]2NC3(CCC(C)(C)CC3)[C@@]3(C(=O)Nc4cc(Cl)ccc43)[C@H]2c2ccnc(Cl)c2F)CO1` [Example 128, (3′R, 4′S,5′R)-6″-chloro-4′-(2-chloro-3-fluoropyridin-4-yl)-N-{(3R,6S)-6-[(2-methoxyethyl)carbamoyl]tetrahydro-2H-pyran-3-yl}-4,4-dimethyl-2″-oxo-1″,2″-dihydrodispiro[cyclohexane-1,2′-pyrrolidine-3′,3″-indole]-5′-carboxamide] showed a pIC50 of 7.30 to 9.00.
